Laboratory results from patent publication US12252497B2, “Ras inhibitors” (Revolution Medicines, Inc., priority 2021, dated 2025).
Like-named read-outs stand apart in the source and are kept apart here.

Details: ester bond, 18-membered ring

Compound CCn1c(-c2cc(N3CCN4CCOC[C@@H]4C3)cnc2[C@H](C)OC)c2c3cc(ccc31)-c1csc(n1)C[C@H](NC(=O)OC(C)(C)C)C(=O)N1CCC[C@H](N1)C(=O)OCC(C)(C)C2 has a ring closure, isolated yield (from CCn1c(-c2cc(N3CCN4CCOC[C@@H]4C3)cnc2[C@H](C)OC)c(CC(C)(C)CO)c2cc(-c3csc(C[C@H](NC(=O)OC(C)(C)C)C(=O)N4CCC[C@@H](C(=O)O)N4)n3)ccc21, EDCI/HOBt/DIPEA, DCM, 11.3 mM, 25.0 °C) of 52%.

CCn1c(-c2cc(N3CCN(C4CC4)CC3)cnc2[C@H](C)OC)c2c3cc(ccc31)-c1cccc(c1)C[C@H](NC(=O)OC(C)(C)C)C(=O)N1CCC[C@H](N1)C(=O)OCC(C)(C)C2 gave a ring closure, isolated yield (from CCn1c(-c2cc(N3CCN(C4CC4)CC3)cnc2[C@H](C)OC)c(CC(C)(C)CO)c2cc(-c3cccc(C[C@H](NC(=O)OC(C)(C)C)C(=O)N4CCC[C@@H](C(=O)O)N4)c3)ccc21, EDCI/HOBt/DIEA, DCM, 14.4 mM, 25.0 °C) of 64%.

Work on CCn1c(-c2cc(N3CCN4CCCC[C@@H]4C3)cnc2[C@H](C)OC)c2c3cc(ccc31)-c1cc(cc(C(F)F)c1)C[C@H](NC(=O)OC(C)(C)C)C(=O)N1CCC[C@H](N1)C(=O)OCC(C)(C)C2 yielded a ring closure, isolated yield (from CCn1c(-c2cc(N3CCN4CCCC[C@@H]4C3)cnc2[C@H](C)OC)c(CC(C)(C)CO)c2cc(-c3cc(C[C@H](NC(=O)OC(C)(C)C)C(=O)N4CCC[C@@H](C(=O)O)N4)cc(C(F)F)c3)ccc21, EDCI/HOBt/DIEA, DCM, 5.27 mM, 25.0 °C) of 90%.

CCn1c(-c2cc(N3CCN(C(=O)OCc4ccccc4)CC3)cnc2[C@H](C)OC)c2c3cc(ccc31)-c1csc(n1)C[C@H](NC(=O)OC(C)(C)C)C(=O)N1CCC[C@H](N1)C(=O)OCC(C)(C)C2 showed a ring closure, isolated yield (from CCn1c(-c2cc(N3CCN(C(=O)OCc4ccccc4)CC3)cnc2[C@H](C)OC)c(CC(C)(C)CO)c2cc(-c3csc(C[C@H](NC(=O)OC(C)(C)C)C(=O)N4CCC[C@@H](C(=O)O)N4)n3)ccc21, EDCI/HOBt/DIPEA, MeCN, 10.3 mM, 25.0 °C) of 55%.

For CO[C@@H](C)c1ncc(N2CCN(C3CC3)CC2)cc1-c1c2c3cc(ccc3n1CC(F)(F)F)C1=CCCN(C1)C[C@H](NC(=O)OC(C)(C)C)C(=O)N1CCC[C@H](N1)C(=O)OCC(C)(C)C2, the ring closure, isolated yield (from CO[C@@H](C)c1ncc(N2CCN(C3CC3)CC2)cc1-c1c(CC(C)(C)CO)c2cc(C3=CCCN(C[C@H](NC(=O)OC(C)(C)C)C(=O)N4CCC[C@@H](C(=O)O)N4)C3)ccc2n1CC(F)(F)F, EDCI/HOBt/DIEA, DCM, 10.8 mM, 25.0 °C) was 73%.

CO[C@@H](C)c1ncc(N2CCN3CCCC[C@@H]3C2)cc1-c1c2c3cc(ccc3n1CC(F)(F)F)-c1cccc(c1)C[C@H](NC(=O)OC(C)(C)C)C(=O)N1CCC[C@H](N1)C(=O)OCC(C)(C)C2 gave a ring closure, isolated yield (from CO[C@@H](C)c1ncc(N2CCN3CCCC[C@@H]3C2)cc1-c1c(CC(C)(C)CO)c2cc(-c3cccc(C[C@H](NC(=O)OC(C)(C)C)C(=O)N4CCC[C@@H](C(=O)O)N4)c3)ccc2n1CC(F)(F)F, EDCI.HCl/HOBt/DIPEA, DCM, 12.9 mM, 0.0 °C) of 65%.

For CCn1c(-c2cc(N3CCN4CCC[C@@H]4C3)cnc2[C@H](C)OC)c2c3cc(ccc31)-c1cc(cc(C(F)F)c1)C[C@H](NC(=O)OC(C)(C)C)C(=O)N1CCC[C@H](N1)C(=O)OCC(C)(C)C2, the ring closure, isolated yield (from CCn1c(-c2cc(N3CCN4CCC[C@@H]4C3)cnc2[C@H](C)OC)c(CC(C)(C)CO)c2cc(-c3cc(C[C@H](NC(=O)OC(C)(C)C)C(=O)N4CCC[C@@H](C(=O)O)N4)cc(C(F)F)c3)ccc21, EDCI/HOBt/DIEA, DCM, 10.1 mM, 25.0 °C) was 78%.

CCn1c(-c2cc(N3CCN4CCC[C@@H]4C3)cnc2[C@H](C)OC)c2c3cc(ccc31)-c1csc(n1)C[C@H](NC(=O)OC(C)(C)C)C(=O)N1CCC[C@H](N1)C(=O)OCC(C)(C)C2 gave a ring closure, isolated yield (from CCn1c(-c2cc(N3CCN4CCC[C@@H]4C3)cnc2[C@H](C)OC)c(CC(C)(C)CO)c2cc(-c3csc(C[C@H](NC(=O)OC(C)(C)C)C(=O)N4CCC[C@@H](C(=O)O)N4)n3)ccc21, EDCI/HOBt/DIEA, DCM, 111.6 mM, 25.0 °C, 16.0 h) of 37%.

For CO[C@@H](C)c1ncc(N2CCN3CCOC[C@@H]3C2)cc1-c1c2c3cc(ccc3n1CC(F)(F)F)-c1csc(n1)C[C@H](NC(=O)OC(C)(C)C)C(=O)N1CCC[C@H](N1)C(=O)OCC(C)(C)C2, the ring closure, isolated yield (from CO[C@@H](C)c1ncc(N2CCN3CCOC[C@@H]3C2)cc1-c1c(CC(C)(C)CO)c2cc(-c3csc(C[C@H](NC(=O)OC(C)(C)C)C(=O)N4CCC[C@@H](C(=O)O)N4)n3)ccc2n1CC(F)(F)F, EDCI/HOBt/DIEA, DCM, 10.6 mM, 25.0 °C) was 64%.

Compound CCn1c(-c2cc(N3CCN4CCCC[C@@H]4C3)cnc2[C@H](C)OC)c2c3cc(ccc31)-c1csc(n1)C[C@H](NC(=O)OC(C)(C)C)C(=O)N1CCC[C@H](N1)C(=O)OCC(C)(C)C2 has a ring closure, isolated yield (from CCn1c(-c2cc(N3CCN4CCCC[C@@H]4C3)cnc2[C@H](C)OC)c(CC(C)(C)CO)c2cc(-c3csc(C[C@H](NC(=O)OC(C)(C)C)C(=O)N4CCC[C@@H](C(=O)O)N4)n3)ccc21, EDCI/HOBt/DIPEA, DCM, 11.3 mM, 25.0 °C) of 49%.

Compound CCn1c(-c2cc(N3CCN4CCOC[C@@H]4C3)cnc2[C@H](C)OC)c2c3cc(ccc31)N1CCO[C@@H](C[C@H](NC(=O)OC(C)(C)C)C(=O)N3CCC[C@H](N3)C(=O)OCC(C)(C)C2)C1 has a ring closure, isolated yield (from CCn1c(-c2cc(N3CCN4CCOC[C@@H]4C3)cnc2[C@H](C)OC)c(CC(C)(C)CO)c2cc(N3CCO[C@@H](C[C@H](NC(=O)OC(C)(C)C)C(=O)N4CCC[C@@H](C(=O)O)N4)C3)ccc21, EDCI/HOBt/NMM, DCM, 11.2 mM, 25.0 °C) of 51%.

CCn1c(-c2cc(N3CCN(C4CC4)CC3)cnc2[C@H](C)OC)c2c3cc(ccc31)N1CCO[C@@H](C[C@H](NC(=O)OCc3ccccc3)C(=O)N3CCC[C@H](N3)C(=O)OCC(C)(C)C2)C1 showed a ring closure, isolated yield (from CCn1c(-c2cc(N3CCN(C4CC4)CC3)cnc2[C@H](C)OC)c(CC(C)(C)CO)c2cc(N3CCO[C@@H](C[C@H](NC(=O)OCc4ccccc4)C(=O)N4CCC[C@@H](C(=O)O)N4)C3)ccc21, EDCI/HOBt/DIEA, DCM, 11.3 mM, 30.0 °C) of 50%.

Work on CO[C@@H](C)c1ncc(N2CCN3CCOC[C@@H]3C2)cc1-c1c2c3cc(ccc3n1CC(F)(F)F)N1CCO[C@@H](C[C@H](NC(=O)OC(C)(C)C)C(=O)N3CCC[C@H](N3)C(=O)OCC(C)(C)C2)C1 yielded a ring closure, isolated yield (from CO[C@@H](C)c1ncc(N2CCN3CCOC[C@@H]3C2)cc1-c1c(CC(C)(C)CO)c2cc(N3CCO[C@@H](C[C@H](NC(=O)OC(C)(C)C)C(=O)N4CCC[C@@H](C(=O)O)N4)C3)ccc2n1CC(F)(F)F, EDCI/HOBt/NMM, DCM, 10.6 mM, 25.0 °C) of 48%.

In the case of CCn1c(-c2cc(N3CCN4CCOC[C@@H]4C3)cnc2[C@H](C)OC)c2c3cc(ccc31)-c1cc(CF)cc(c1)C[C@H](NC(=O)OC(C)(C)C)C(=O)N1CCC[C@H](N1)C(=O)OCC(C)(C)C2, the ring closure, isolated yield (from CCn1c(-c2cc(N3CCN4CCOC[C@@H]4C3)cnc2[C@H](C)OC)c(CC(C)(C)CO)c2cc(-c3cc(CF)cc(C[C@H](NC(=O)OC(C)(C)C)C(=O)N4CCC[C@@H](C(=O)O)N4)c3)ccc21, EDCI/HOBt/DIEA, DCM, 11.3 mM, 0.0 °C) is reported as 69%.

Work on CCn1c(-c2cc(N3CCN4CCCC[C@@H]4C3)cnc2[C@H](C)OC)c2c3cc(ccc31)N1CCO[C@@H](C[C@H](NC(=O)OC(C)(C)C)C(=O)N3CCC[C@H](N3)C(=O)OCC(C)(C)C2)C1 yielded a ring closure, isolated yield (from CCn1c(-c2cc(N3CCN4CCCC[C@@H]4C3)cnc2[C@H](C)OC)c(CC(C)(C)CO)c2cc(N3CCO[C@@H](C[C@H](NC(=O)OC(C)(C)C)C(=O)N4CCC[C@@H](C(=O)O)N4)C3)ccc21, EDCI/HOBt/DIPEA, DMF, 11.2 mM, 25.0 °C) of 73%.

CCn1c(-c2cc(N3CCN4CCOC[C@@H]4C3)cnc2[C@H](C)OC)c2c3cc(ccc31)-c1cc(cc(C(F)F)c1)C[C@H](NC(=O)OC(C)(C)C)C(=O)N1CCC[C@H](N1)C(=O)OCC(C)(C)C2 showed a ring closure, isolated yield (from CCn1c(-c2cc(N3CCN4CCOC[C@@H]4C3)cnc2[C@H](C)OC)c(CC(C)(C)CO)c2cc(-c3cc(C[C@H](NC(=O)OC(C)(C)C)C(=O)N4CCC[C@@H](C(=O)O)N4)cc(C(F)F)c3)ccc21, EDCI/HOBt/DIEA, DCM, 10.7 mM, 25.0 °C) of 42%.

In the case of CCn1c(-c2cc(N3CCN4CCC[C@@H]4C3)cnc2[C@H](C)OC)c2c3cc(ccc31)-c1cccc(c1)C[C@H](NC(=O)OC(C)(C)C)C(=O)N1CCC[C@H](N1)C(=O)OCC(C)(C)C2, the ring closure, isolated yield (from CCn1c(-c2cc(N3CCN4CCC[C@@H]4C3)cnc2[C@H](C)OC)c(CC(C)(C)CO)c2cc(-c3cccc(C[C@H](NC(=O)OC(C)(C)C)C(=O)N4CCC[C@@H](C(=O)O)N4)c3)ccc21, EDCI/HOBt/DIPEA, DCM, 16.7 mM, 25.0 °C) is reported as 42%.

With CO[C@@H](C)c1ncc(N2CCN(C3CC3)CC2)cc1-c1c2c3cc(ccc3n1CC(F)(F)F)N1CCO[C@@H](C[C@H](NC(=O)OC(C)(C)C)C(=O)N3CCC[C@H](N3)C(=O)OCC(C)(C)C2)C1 the ring closure, isolated yield (from CO[C@@H](C)c1ncc(N2CCN(C3CC3)CC2)cc1-c1c(CC(C)(C)CO)c2cc(N3CCO[C@@H](C[C@H](NC(=O)OC(C)(C)C)C(=O)N4CCC[C@@H](C(=O)O)N4)C3)ccc2n1CC(F)(F)F, EDCI/HOBt/DIEA, DCM, 9.22 mM, 25.0 °C) was 64%.
